Data taken from patent US8354419B2, “Benzimidazole analogues for the treatment or prevention of flavivirus infections” (Vertex Pharmaceuticals Incorporated, priority 2009, dated 2013).

Tested on: HCV (Ib) RNA replication
Test: Cell-based luciferase reporter HCV (1b) RNA replication assay (replicon cell lines Huh-7 5.2 and ET)
Design: species or system Hepatitis C virus
Settings: Hepatitis C virus, Huh-7, 96 h, HCV 1b genotype replicon, luciferase readout, 4 days incubation; read-out: EC50_1b
How it was run: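 Huh-7-derived 5.2 or ET replicon cells carrying a firefly luciferase reporter were seeded at ~3000 cells/well in medium without G418 or phenol red. Compound was added after 3-4 h, followed by 4 days at 37 °C. Luciferase readout was used, with IC50 fitted by nonlinear regression from eleven concentrations in duplicate.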

SMILES | EC50 [nM]
COC(=O)N[C@H](C(=O)N1C[C@@H](C)C[C@H]1c1nc2cc(-c3ccc(-c4ccc5[nH]c([C@@H]6C[C@H](C)CN6C(=O)[C@@H](NC(=O)OC)C(C)C)nc5c4)c(C(=O)OC)c3)ccc2[nH]1)C(C)C [Compound 268] | ≤ 5
COC(=O)N[C@H](C(=O)N1C(C)CC[C@H]1c1nc2cc(-c3ccc(-c4ccc5[nH]c([C@@H]6CCC(C)N6C(=O)[C@@H](NC(=O)OC)C(C)C)nc5c4)cc3)ccc2[nH]1)C(C)C (stereo partly shown) [Compound 269] | ≤ 5
COC(=O)N[C@H](C(=O)N1C[C@@H](C)C[C@H]1c1nc2cc(-c3ccc(-c4ccc5nc([C@@H]6C[C@H](C)CN6C(=O)[C@@H](NC(=O)OC)C(C)C)[nH]c5c4)cc3C(=O)O)ccc2[nH]1)C(C)C [Compound 270] | 5 to 5000
COC(=O)N[C@H](C(=O)N1C[C@@H](C)C[C@H]1c1nc2cc(-c3ccc(-c4ccc5nc([C@@H]6CCCN6C(=O)[C@@H](NC(=O)OC)C(C)C)n(C)c5c4)cc3)ccc2[nH]1)C(C)C [Compound 271] | ≤ 5
COC(=O)N[C@H](C(=O)N1CCC[C@H]1c1nc2cc(-c3ccc(-c4ccc5[nH]c([C@@H]6C[C@H](C)CN6C(=O)[C@@H](NC(=O)OC)C(C)C)nc5c4)cc3)ccc2[nH]1)C(C)C [Compound 272] | ≤ 5
CC(C)(C)OC(=O)N1CCC[C@H]1c1nc2cc(N3CCCN(c4ccc5nc([C@@H]6CCCN6C(=O)OC(C)(C)C)[nH]c5c4)CC3)ccc2[nH]1 [Compound 273] | > 5000
COC(=O)N(C)[C@H](C(=O)N1C[C@@H](C)C[C@H]1c1nc2ccc(C#CC#Cc3ccc4nc([C@@H]5C[C@H](C)CN5C(=O)[C@H](C(C)C)N(C)C(=O)OC)[nH]c4c3)cc2[nH]1)C(C)C [Compound 274] | ≤ 5
C[C@H]1CN(c2ccc3nc([C@@H]4CCCN4C(=O)OC(C)(C)C)[nH]c3c2)CCN1c1ccc2nc([C@@H]3CCCN3C(=O)OC(C)(C)C)[nH]c2c1 [Compound 275] | 5 to 5000
COC(=O)N[C@H](C(=O)N1C[C@@H](C)C[C@H]1c1nc2cc(-c3cc(C)c(-c4ccc5[nH]c([C@@H]6C[C@H](C)CN6C(=O)[C@H](C(C)C)N(C)C(=O)OC)nc5c4)cc3C)ccc2[nH]1)C(C)C [Compound 276] | ≤ 5
COC(=O)N(C)[C@H](C(=O)N1C[C@@H](C)C[C@H]1c1nc2cc(-c3cc(C)c(-c4ccc5[nH]c([C@@H]6C[C@H](C)CN6C(=O)[C@H](C(C)C)N(C)C(=O)OC)nc5c4)cc3C)ccc2[nH]1)C(C)C [Compound 277] | ≤ 5
COC(=O)N(C)[C@H](C(=O)N1C[C@@H](C)C[C@H]1c1nc2cc(-c3ccc(-c4ccc5[nH]c([C@@H]6C[C@H](C)CN6C(=O)[C@H](C(C)C)N(C)C(=O)OC)nc5c4)c(F)c3)ccc2[nH]1)C(C)C [Compound 278] | ≤ 5
COC(=O)N(C(C)C)[C@H](C(=O)N1C[C@@H](C)C[C@H]1c1nc2cc(-c3ccc(-c4ccc5nc([C@@H]6C[C@H](C)CN6C(=O)[C@H](C(C)C)N(C(=O)OC)C(C)C)[nH]c5c4)cc3)ccc2[nH]1)C(C)C [Compound 279] | ≤ 5
COC(=O)N[C@H](C(=O)N1C[C@@H](C)C[C@H]1c1nc2cc(-c3cc(F)c(-c4ccc5[nH]c([C@@H]6C[C@H](C)CN6C(=O)[C@@H](NC(=O)OC)C(C)C)nc5c4)cc3F)ccc2[nH]1)C(C)C [Compound 280] | ≤ 5
COC(=O)N[C@H](C(=O)N1C[C@@H](C)C[C@H]1c1nc2cc(-c3cc(F)c(-c4ccc5[nH]c([C@@H]6C[C@H](C)CN6C(=O)[C@H](C(C)C)N(C)C(=O)OC)nc5c4)cc3F)ccc2[nH]1)C(C)C [Compound 281] | ≤ 5
COC(=O)N(C)[C@H](C(=O)N1C[C@@H](C)C[C@H]1c1nc2cc(-c3cc(F)c(-c4ccc5[nH]c([C@@H]6C[C@H](C)CN6C(=O)[C@H](C(C)C)N(C)C(=O)OC)nc5c4)cc3F)ccc2[nH]1)C(C)C [Compound 282] | ≤ 5
C[C@@H]1CN(c2ccc3nc([C@@H]4CCCN4C(=O)OC(C)(C)C)[nH]c3c2)CCN1c1ccc2nc([C@@H]3CCCN3C(=O)OC(C)(C)C)[nH]c2c1 [Compound 283] | > 5000
COC(=O)N[C@H](C(=O)N1C[C@@H](C)C[C@H]1c1nc2cc(-c3ccc(-c4ccc5nc([C@@H]6C[C@H](C)CN6C(=O)[C@H](C(C)C)N(C(=O)OC)C(C)C)[nH]c5c4)cc3)ccc2[nH]1)C(C)C [Compound 284] | ≤ 5
COC(=O)N[C@H](C(=O)N1C[C@@H](C)C[C@H]1c1nc2cc(-c3ccc(-c4ccc5[nH]c([C@@H]6C[C@H](C)CN6C(=O)[C@H](C(C)C)N(C)C(=O)OC)nc5c4)cc3F)ccc2[nH]1)C(C)C [Compound 285] | ≤ 5
COC(=O)N[C@H](C(=O)N1C[C@@H](C)C[C@H]1c1nc2cc(-c3ccc(-c4ccc5[nH]c([C@@H]6C[C@H](C)CN6C(=O)[C@H](C(C)C)N(C)C(=O)OC)nc5c4)c(F)c3)ccc2[nH]1)C(C)C [Compound 286] | ≤ 5
COC(=O)N1CCC[C@H]1C(=O)N1C[C@@H](C)C[C@H]1c1nc2cc(-c3ccc(-c4ccc5[nH]c([C@@H]6C[C@H](C)CN6C(=O)[C@@H]6CCCN6C(=O)OC)nc5c4)cc3)ccc2[nH]1 [Compound 287] | ≤ 5

SMILES | EC50 [nM]
COC(=O)N[C@H](C(=O)N1C[C@@H](C)C[C@H]1c1nc2cc(-c3ccc(-c4ccc5[nH]c([C@@H]6C[C@H](C)CN6C(=O)[C@@H]6CCCN6C(=O)OC)nc5c4)cc3)ccc2[nH]1)C(C)C [Compound 288] | ≤ 5
COC(=O)N(C)[C@H](C(=O)N1C[C@@H](C)C[C@H]1c1nc2cc(-c3ccc(-c4ccc5[nH]c([C@@H]6C[C@H](C)CN6C(=O)[C@@H](Nc6ncccn6)C(C)C)nc5c4)cc3)ccc2[nH]1)C(C)C [Compound 289] | ≤ 5
COC(=O)N(C)[C@H](C(=O)N1C[C@@H](C)C[C@H]1c1nc2cc(-c3csc4c(-c5ccc6[nH]c([C@@H]7C[C@H](C)CN7C(=O)[C@H](C(C)C)N(C)C(=O)OC)nc6c5)csc34)ccc2[nH]1)C(C)C [Compound 290] | ≤ 5
C[C@H]1C[C@@H](c2nc3ccc(-c4ccc(-c5ccc6nc([C@@H]7C[C@H](C)CN7C(=O)OC(C)(C)C)n(C)c6c5)cc4)cc3n2C)N(C(=O)OC(C)(C)C)C1 [Compound 291] | 5 to 5000
C[C@H]1C[C@@H](c2nc3ccc(-c4ccc(-c5ccc6nc([C@@H]7C[C@H](C)CN7C(=O)OC(C)(C)C)n(C)c6c5)cc4)cc3[nH]2)N(C(=O)OC(C)(C)C)C1 [Compound 292] | 5 to 5000
COC(=O)N[C@H](C(=O)N1C[C@@H](C)C[C@H]1c1nc2ccc(-c3ccc(-c4ccc5nc([C@@H]6C[C@H](C)CN6C(=O)[C@@H](NC(=O)OC)C(C)C)n(C)c5c4)cc3)cc2n1C)C(C)C [Compound 293] | ≤ 5
COC(=O)N[C@H](C(=O)N1C[C@@H](C)C[C@H]1c1nc2ccc(-c3ccc(-c4ccc5nc([C@@H]6C[C@H](C)CN6C(=O)[C@@H](NC(=O)OC)C(C)C)n(C)c5c4)cc3)cc2[nH]1)C(C)C [Compound 294] | ≤ 5
COC(=O)N(C)[C@H](C(=O)N1C[C@@H](C)C[C@H]1c1nc2ccc(-c3ccc(-c4ccc5nc([C@@H]6C[C@H](C)CN6C(=O)[C@H](C(C)C)N(C)C(=O)OC)n(C)c5c4)cc3)cc2n1C)C(C)C [Compound 295] | ≤ 5
COC(=O)N(C)[C@H](C(=O)N1C[C@@H](C)C[C@H]1c1nc2ccc(-c3ccc(-c4ccc5nc([C@@H]6C[C@H](C)CN6C(=O)[C@H](C(C)C)N(C)C(=O)OC)n(C)c5c4)cc3)cc2[nH]1)C(C)C [Compound 296] | ≤ 5
CCN(C(=O)OC)[C@H](C(=O)N1C[C@@H](C)C[C@H]1c1nc2ccc(-c3ccc(-c4ccc5[nH]c([C@@H]6C[C@H](C)CN6C(=O)[C@@H](NC(=O)OC)C(C)C)nc5c4)cc3)cc2[nH]1)C(C)C [Compound 297] | ≤ 5
COC(=O)N[C@H](C(=O)N1CC(C)(C)C[C@H]1c1nc2cc(-c3ccc(-c4ccc5[nH]c([C@@H]6CC(C)(C)CN6C(=O)[C@@H](NC(=O)OC)C(C)C)nc5c4)cc3)ccc2[nH]1)C(C)C [Compound 298] | ≤ 5
COC(=O)N(C)[C@H](C(=O)N1C[C@@H](C)C[C@H]1c1nc2cc(-c3ccc(-c4ccc5[nH]c([C@@H]6C[C@H](C)CN6C(=O)[C@H](C(C)C)N(C)C(=O)OC)nc5c4)c4nsnc34)ccc2[nH]1)C(C)C [Compound 299] | ≤ 5
COC(=O)N[C@H](C(=O)N1C(C)CC[C@H]1c1nc2cc(-c3ccc(-c4ccc5[nH]c([C@@H]6CCC(C)N6C(=O)[C@@H](NC(=O)OC)C(C)C)nc5c4)c(C)c3)ccc2[nH]1)C(C)C (stereo partly shown) [Compound 300] | ≤ 5
COC(=O)N[C@H](C(=O)N1C(C)CC[C@H]1c1nc2cc(-c3ccc(-c4ccc5[nH]c([C@@H]6CCC(C)N6C(=O)[C@H](C(C)C)N(C)C(=O)OC)nc5c4)cc3)ccc2[nH]1)C(C)C (stereo partly shown) [Compound 301] | ≤ 5
CC[C@H]1C[C@@H](c2nc3cc(-c4ccc(-c5ccc6[nH]c([C@@H]7C[C@H](CC)CN7C(=O)[C@@H](NC(C)OC)C(C)C)nc6c5)cc4)ccc3[nH]2)N(C(=O)[C@@H](NC(=O)OC)C(C)C)C1 (stereo partly shown) [Compound 302] | ≤ 5
COC(=O)N[C@H](C(=O)N1C[C@@H](C)C[C@H]1c1nc2cc(-c3ccc(-c4ccc5[nH]c([C@@H]6C[C@H](C)CN6C(=O)[C@@H](NC(=O)OC)C(C)C)nc5c4)c4nsnc34)ccc2[nH]1)C(C)C [Compound 304] | ≤ 5
COC(=O)N[C@H](C(=O)N1C[C@@H](C)C[C@H]1c1nc2cc(-c3ccc(-c4ccc5[nH]c([C@@H]6C[C@H](C)CN6C(=O)[C@H](C(C)C)N6CCOC6=O)nc5c4)cc3)ccc2[nH]1)C(C)C [Compound 305] | ≤ 5
CC(C)[C@@H](C(=O)N1C[C@@H](C)C[C@H]1c1nc2cc(-c3ccc(-c4ccc5[nH]c([C@@H]6C[C@H](C)CN6C(=O)[C@H](C(C)C)N6CCOC6=O)nc5c4)cc3)ccc2[nH]1)N1CCOC1=O [Compound 306] | ≤ 5
COC(=O)N[C@H](C(=O)N1C[C@@H](C)C[C@H]1c1nc2cc(-c3cnc(-c4ccc5[nH]c([C@@H]6C[C@H](C)CN6C(=O)[C@@H](NC(=O)OC)C(C)C)nc5c4)cn3)ccc2[nH]1)C(C)C [Compound 307] | ≤ 5
COC(=O)N[C@H](C(=O)N1[C@H](C)CC[C@H]1c1nc2cc(-c3ccc(-c4ccc5[nH]c([C@@H]6CC[C@@H](C)N6C(=O)[C@@H](NC(=O)OC)C(C)C)nc5c4)cc3)ccc2[nH]1)C(C)C [Compound 310] | ≤ 5
